Reference: patent US9493486B2, “Diazaspirocycloalkane and azaspirocycloalkane” (Hoffmann-La Roche Inc., priority 2012, dated 2016)

Molecular target: ATX (human His-tagged) (Homo sapiens (Human), UniProt Q13822)
Assay: Human ATX enzyme inhibition assay (fluorescence quenching, MR121 substrate)
Assay type: biochemical
Conditions: 30 nM ATX, 1 μM MR121 substrate, 30° C.
Description: Human ATX Enzyme Inhibition Assay
Assay working solutions were made as follows:

SMILES	IC50
CS(=O)(=O)c1ccc(COC(=O)N2CCC3(CC2)CN(C(=O)c2ccc4[nH]nnc4c2)C3)c(Cl)c1 [Example 12.28, 2-chloro-4-(methylsulfonyl)benzyl 2-(1H-benzo[d][1,2,3]triazole-5-carbonyl)-2,7-diazaspiro[3.5]nonane-7-carboxylate]	0.138 µM
O=C(CCc1cc(Cl)cc(Cl)c1)N1CCC2(CC1)CC(Nc1ccc3[nH]c(=O)oc3c1)C2 [Example 6.1, 6-(7-(3-(3,5-dichlorophenyl)propanoyl)-7-azaspiro[3.5]nonan-2-ylamino)benzo[d]oxazol-2(3H)-one]	0.362 µM
O=C(OCc1csc(Cl)c1)N1CCC2(CC1)CN(C(=O)c1ccc3[nH]nnc3c1)C2 [Example 12.12, (5-chlorothiophen-3-yl)methyl 2-(1H-benzo[d][1,2,3]triazole-5-carbonyl)-2,7-diazaspiro[3.5]nonane-7-carboxylate]	0.332 µM
O=C(NCc1c[nH]nn1)N1CC2(CCN(C(=O)OCc3ccc(OC(F)(F)F)cc3F)CC2)C1 [Example 14.01, [2-Fluoro-4-(trifluoromethoxy)phenyl]methyl 2-((1H-triazol-4-ylmethyl)carbamoyl)-2,7-diazaspiro[3.5]nonane-7-carboxylate]	0.0415 µM
CS(=O)(=O)c1cc(Cl)cc(COC(=O)N2CCC3(CC2)CN(C(=O)c2ccc(S(N)(=O)=O)cc2)C3)c1 [Example 1.17, 3-chloro-5-(methylsulfonyl)benzyl 2-(4-sulfamoylbenzoyl)-2,7-diazaspiro[3.5]nonane-7-carboxylate]	0.729 µM
CS(=O)(=O)c1cc(Cl)cc(COC(=O)N2CCC3(CC2)CN(C(=O)c2ccc4[nH]nnc4c2)C3)c1 [Example 1.09, 3-chloro-5-(methylsulfonyl)benzyl 2-(1H-benzo[d][1,2,3]triazole-5-carbonyl)-2,7-diazaspiro[3.5]nonane-7-carboxylate]	0.0505 µM
O=C(NC1CC2(C1)CN(C(=O)OCc1cc(F)cc(C(F)(F)F)c1)C2)c1ccc2[nH]nnc2c1 [Example 12.23, 6-[(1H-benzotriazole-5-carbonyl)-amino]-2-aza-spiro[3.3]heptane-2-carboxylic acid 3-fluoro-5-trifluoromethyl-benzyl ester]	1.91 µM
O=C(CCc1cc(Cl)cc(Cl)c1)N1CC2(CC(NS(=O)(=O)c3ccc4[nH]c(=O)oc4c3)C2)C1 [Example 3.3, 2-oxo-2,3-dihydro-benzooxazole-6-sulfonic acid {2-[3-(3,5-dichloro-phenyl)-propionyl]-2-aza-spiro[3.3]hept-6-yl}-amide]	0.059 µM
O=C(c1ccc2[nH]nnc2c1)N1CC2(CCN(c3nnc(-c4cc(Cl)cc(Cl)c4)o3)CC2)C1 [Example 7, (1H-benzo[d][1,2,3]triazol-5-yl)(7-(5-(3,5-dichlorophenyl)-1,3,4-oxadiazol-2-yl)-2,7-diazaspiro[3.5]nonan-2-yl)methanone]	0.043 µM
O=C(NC1CC2(C1)CN(C(=O)c1ccc3[nH]nnc3c1)C2)OCc1cc(Cl)cc(Cl)c1 [Example 1.12, [2-(1H-benzotriazole-5-carbonyl)-2-aza-spiro[3.3]hept-6-yl]-carbamic acid 3,5-dichloro-benzyl ester]	0.035 µM
O=C(OCc1csc(Br)c1)N1CCC2(CC1)CN(C(=O)c1ccc3[nH]nnc3c1)C2 [Example 12.14, (5-bromothiophen-3-yl)methyl 2-(1H-benzo[d][1,2,3]triazole-5-carbonyl)-2,7-diazaspiro[3.5]nonane-7-carboxylate]	0.271 µM
O=C(OCc1cc(Cl)cc(Cl)c1)N1CCC2(C1)CN(C(=O)c1ccc3[nH]c(=O)oc3c1)C2 [Example 2, 3,5-Dichlorobenzyl 2-(2-oxo-2,3-dihydro-benzo[d]oxazole-6-carbonyl)-2,6-diazaspiro[3.4]octane-6-carboxylate]	0.026 µM
O=C(OCc1ccc(Cl)c(F)c1)N1CCC2(CC1)CN(C(=O)c1ccc3[nH]nnc3c1)C2 [Example 12, 4-Chloro-3-fluorobenzyl 2-(1H-benzo[d][1,2,3]triazole-5-carbonyl)-2,7-diazaspiro[3.5]nonane-7-carboxylate]	0.131 µM
Cc1ccc(COC(=O)N2CC3(CC(NC(=O)c4ccc5[nH]nnc5c4)C3)C2)cc1Cl [Example 12.24, 6-[(1H-benzotriazole-5-carbonyl)-amino]-2-aza-spiro[3.3]heptane-2-carboxylic acid 3-chloro-4-methyl-benzyl ester]	0.229 µM
O=C(OCc1cc(F)cc(OC(F)(F)F)c1)N1CCCC2(CCN(C(=O)c3ccc4[nH]nnc4c3)C2)C1 (stereo not drawn) [Example 12.30, 3-fluoro-5-(trifluoromethoxy)benzyl 2-(1H-benzo[d][1,2,3]triazole-5-carbonyl)-2,7-diazaspiro[4.5]decane-7-carboxylate]	1.6 µM
O=C(OCc1ccc(OC(F)(F)F)cc1F)N1CC2(CCN(C(=O)C3CCc4[nH]nnc4C3)CC2)C1 (stereo not drawn) [Example 12.41, 2-fluoro-4-(trifluoromethoxy)benzyl 7-(4,5,6,7-tetrahydro-1H-benzo[d][1,2,3]triazole-5-carbonyl)-2,7-diazaspiro[3.5]nonane-2-carboxylate]	0.002 µM
O=C(OCc1ccc(Cl)cc1Cl)N1CCC2(CC1)CN(C(=O)c1ccc3[nH]nnc3c1)C2 [Example 12.04, 2,4-dichlorobenzyl 2-(1H-benzo[d][1,2,3]triazole-5-carbonyl)-2,7-diazaspiro[3.5]nonane-7-carboxylate]	0.017 µM

SMILES	IC50
O=C(OCc1ccc(Cl)nc1)N1CCC2(CC1)CN(C(=O)c1ccc3[nH]nnc3c1)C2 [Example 12.05, (6-chloropyridin-3-yl)methyl 2-(1H-benzo[d][1,2,3]triazole-5-carbonyl)-2,7-diazaspiro[3.5]nonane-7-carboxylate]	4.98 µM
O=C(c1ccc2[nH]nnc2c1)N1CCC2(CCN(C(=O)c3cc4cc(Cl)ccc4[nH]3)C2)C1 (stereo not drawn) [Example 6.6, (7-(1H-benzo[d][1,2,3]triazole-5-carbonyl)-2,7-diazaspiro[4.4]nonan-2-yl)(5-chloro-1H-indol-2-yl)methanone]	0.605 µM
Nc1ccc(C(=O)N2CC3(CCN(C(=O)OCc4cc(Cl)cc(Cl)c4)CC3)C2)cc1O [Example 1.06, 3,5-dichlorobenzyl 2-(4-amino-3-hydroxybenzoyl)-2,7-diazaspiro[3.5]nonane-7-carboxylate]	0.107 µM
O=C(OCc1ccc(OC(F)(F)F)cc1)N1CC2(CCN(C(=O)C3CCc4[nH]nnc4C3)CC2)C1 (stereo not drawn) [Example 12.34, 4-(trifluoromethoxy)benzyl 7-(4,5,6,7-tetrahydro-1H-benzo[d][1,2,3]triazole-5-carbonyl)-2,7-diazaspiro[3.5]nonane-2-carboxylate]	0.01 µM
O=C(NC1CC2(C1)CN(C(=O)OCc1cc(Cl)cc(Cl)c1)C2)c1ccc2[nH]nnc2c1 [Example 1.13, 6-[(1H-benzotriazole-5-carbonyl)-amino]-2-aza-spiro[3.3]heptane-2-carboxylic acid 3,5-dichloro-benzyl ester]	5.43 µM
O=C(OCc1cc(Cl)cc(Cl)c1)N1CC2(CCN(C(=O)c3ccc4[nH]nnc4c3)CC2)C1 [Example 1.15, 3,5-dichlorobenzyl 7-(1H-benzo[d][1,2,3]triazole-5-carbonyl)-2,7-diazaspiro[3.5]nonane-2-carboxylate]	0.0645 µM
O=C(C#Cc1cccc(Cl)c1)N1CCC2(CC1)CN(C(=O)c1ccc3[nH]nnc3c1)C2 [Example 6.10, 1-(2-(1H-benzo[d][1,2,3]triazole-5-carbonyl)-2,7-diazaspiro[3.5]nonan-7-yl)-3-(3-chlorophenyl)prop-2-yn-1-one]	0.826 µM
O=C(c1ccc2[nH]nnc2c1)N1CC2(CCN(C(=O)N3Cc4ccc(Cl)cc4C3)CC2)C1 [Example 10, (2-(1H-Benzo[d][1,2,3]-triazole-5-carbonyl)-2,7-diazaspiro[3.5]nonan-7-yl)(5-chloroisoindolin-2-yl)methanone]	3.44 µM
O=C(OCc1ccc(OC(F)(F)F)cc1)N1CCC2(CC1)CN(C(=O)C1CCc3[nH]nnc3C1)C2 (stereo not drawn) [Example 12.43, 4-(trifluoromethoxy)benzyl 2-(4,5,6,7-tetrahydro-1H-benzo[d][1,2,3]triazole-5-carbonyl)-2,7-diazaspiro[3.5]nonane-7-carboxylate]	0.001 µM
O=C(OCc1ccc(Cl)cc1)N1CCC2(CC1)CN(C(=O)c1ccc3[nH]nnc3c1)C2 [Example 1.02, 4-chlorobenzyl 2-(1H-benzo[d][1,2,3]triazole-5-carbonyl)-2,7-diazaspiro[3.5]nonane-7-carboxylate]	0.129 µM
O=C(OCc1cncc(Br)c1)N1CCC2(CC1)CN(C(=O)c1ccc3[nH]nnc3c1)C2 [Example 12.09, (5-bromopyridin-3-yl)methyl 2-(1H-benzo[d][1,2,3]triazole-5-carbonyl)-2,7-diazaspiro[3.5]nonane-7-carboxylate]	1.64 µM
O=C(NC1CC2(C1)CN(C(=O)OCc1cccc(C(F)(F)F)c1)C2)c1ccc2[nH]nnc2c1 [Example 12.19, 6-[(1H-benzotriazole-5-carbonyl)-amino]-2-aza-spiro[3.3]heptane-2-carboxylic acid 3-trifluoromethyl-benzyl ester]	2.15 µM
NS(=O)(=O)c1ccc(C(=O)N2CC3(CCN(C(=O)OCc4ccc(OC(F)(F)F)cc4F)CC3)C2)cc1 [Example 1.23, 2-fluoro-4-(trifluoromethoxy)benzyl 2-(4-sulfamoylbenzoyl)-2,7-diazaspiro[3.5]nonane-7-carboxylate]	0.001 µM
CS(=O)(=O)c1cc(COC(=O)N2CCC3(CC2)CN(C(=O)c2ccc4[nH]nnc4c2)C3)cc(C(F)(F)F)c1 [Example 12.25, 3-(methylsulfonyl)-5-(trifluoromethyl)benzyl 2-(1H-benzo[d][1,2,3]triazole-5-carbonyl)-2,7-diazaspiro[3.5]nonane-7-carboxylate]	0.092 µM
O=C(c1ccc2[nH]nnc2c1)N1CC2(CCN(S(=O)(=O)CCc3cccc(Cl)c3)CC2)C1 [Example 1.21, (1H-benzotriazol-5-yl)-{7-[2-(3-chloro-phenyl)-ethanesulfonyl]-2,7-diaza-spiro[3.5]non-2-yl}-methanone]	0.821 µM
O=C(OCc1ccc(F)c(Cl)c1)N1CCC2(CC1)CN(C(=O)c1ccc3[nH]nnc3c1)C2 [Example 12.11, 3-chloro-4-fluorobenzyl 2-(1H-benzo[d][1,2,3]triazole-5-carbonyl)-2,7-diazaspiro[3.5]nonane-7-carboxylate]	0.169 µM
